Measured values: paper PMC10216478, “Development of a Non-Peptide Angiotensin II Type 1 Receptor Ligand by Structural Modification of Olmesartan as a Biased Agonist” (Biomedicines, 2023)
Where a chain is given by its changes, count along the chain named.

Assays:
Settings in all cases: competition with 125I-[Sar1,Ile8]Ang II, n = 3, mean ± standard error, read-out: Binding affinity (Kd)
AT1 Y292A receptor = target: T1, AT1 Y292A receptor (Rattus norvegicus, UniProt P25095, Y292A); assay: Competition binding study, 125I-[Sar1,Ile8]Ang II, AT1 Y292A receptor
T1 construct: expressed in transfected cells; host or cells: COS7
T1 sequence (P25095 1-359 Y292A): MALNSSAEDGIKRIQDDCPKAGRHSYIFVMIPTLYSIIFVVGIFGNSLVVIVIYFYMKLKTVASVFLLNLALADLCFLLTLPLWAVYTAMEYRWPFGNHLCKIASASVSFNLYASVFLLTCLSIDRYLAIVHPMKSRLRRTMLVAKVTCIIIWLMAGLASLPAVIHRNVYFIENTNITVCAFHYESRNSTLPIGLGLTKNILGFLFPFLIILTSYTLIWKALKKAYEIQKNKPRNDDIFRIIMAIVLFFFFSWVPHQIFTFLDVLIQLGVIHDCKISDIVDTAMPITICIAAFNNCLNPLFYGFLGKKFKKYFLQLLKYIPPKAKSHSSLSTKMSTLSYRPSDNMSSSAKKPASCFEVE
Source text: (§1) We mutated four amino acids in transmembrane (TM) III, VI, and VII in the AT1 receptor (L112A, Q257A, Y292A, and N295A receptors). We determined the mutation sites of the AT1 receptor according to ARB, which produced olmesartan derivatives with different interactions and functions toward the AT1 receptor, as previously reported by Zhang et al., since the additional 4-hydroxybenzyl groups of R781253 and R794847 were predicted to extend to a sub-pocket on the bottom of the AT1 receptor ligand-binding pocket consisting of Leu^112 and Gln^257. In addition, since the biased ligand TRV027 induced changes near the NPxxY motif in TM domain 7 that are related to receptor activation, Tyr^292 and Asn^295 in the AT1 receptor were mutated.
(§2) The synthetic rat AT1 receptor gene, which was cloned in the shuttle expression vector pMT-2, was used for expression and mutagenesis, as described previously. COS7 cells (No. CRL-1651, ATCC, Manassas, VA, USA) were cultured in 10% fetal bovine serum (FBS) and penicillin- and streptomycin-supplemented Dulbecco’s modified Eagle’s essential medium (PS-DMEM) in 5% CO2 at 37 °C. In the experiments, cells were grown without a cell-growth supplement. To express the AT1 receptor protein, 10 µg of purified plasmid DNA per 10^7 cells was used in the transfection. Wild-type and mutated AT1 receptors were transiently transfected into cells using Lipofectamine 2000 liposomal reagent (Roche Applied Science, Penzberg, Germany). Cells were plated and grown and were 70–90% confluent at the time of transfection. We incubated plasmid DNA (10 µg)–lipid (10 µL) complexes for 5 min at room temperature and added and incubated the complexes with cells for 24 h. We then analyzed the parameters in transfected cells. Cell viability was >95% according to trypan blue exclusion analysis in the control experiments. Transfected cells that had been cultured for 48–72 h were harvested. Cell membranes were prepared using the nitrogen Parr bomb disruption or freeze–thaw methods.
(§3) The Kd (nM) values of receptor binding were determined with ^125I-[Sar^1, Ile^8]AngII-binding experiments under equilibrium conditions. Binding kinetics were determined following the methods described in the literature. We carried out binding by using ^125I-[Sar^1, Ile^8] AngII (2200 Ci/mmol) and an increasing concentration (10^−11–10^−5 M) of each unlabeled compound. Nonspecific binding of ^125I-[Sar^1, Ile^8] Ang II was determined in the presence of a high concentration (10^−6 M) of unlabeled [Sar^1, Ile^8]. Next, the incubation mixture was separated by vacuum filtration through Whatman GF/C glass filters (Disposable Filter Funnels Grade GF/C, GE Healthcare), and presoaked with 0.1% polyethylenimine. The filter was washed with 3 mL of ice-cold stop buffer (25 mM Tris–HCl, pH 7.4, 1 mM MgCl2). The radioactivity trapped on the filters was quantified using an automatic γ-counter. The percentage (%) of specific binding of ^125I-[Sar^1, Ile^8]Ang II was calculated using the following formula: 100 × (% total binding of ^125I-[Sar^1, Ile^8]Ang II—nonspecific binding of ^125I-[Sar^1, Ile^8]Ang II)/(% total binding of ^125I-[Sar^1, Ile^8]Ang II).

AT1 N295A receptor = target: T2, AT1 N295A receptor (Rattus norvegicus, UniProt P25095, N295A); assay: Competition binding study, 125I-[Sar1,Ile8]Ang II, AT1 N295A receptor
T2 construct: expressed in transfected cells; host or cells: COS7
T2 sequence (P25095 1-359 N295A): T1 sequence (P25095 1-359 Y292A) with A292Y, N295A
Source text: as §1, §2, §3

AT1 Q257A receptor = target: T3, AT1 Q257A receptor (Rattus norvegicus, UniProt P25095, Q257A); assay: Competition binding study, 125I-[Sar1,Ile8]Ang II, AT1 Q257A receptor
T3 construct: expressed in transfected cells; host or cells: COS7
T3 sequence (P25095 1-359 Q257A): T1 sequence (P25095 1-359 Y292A) with Q257A, A292Y
Source text: as §1, §2, §3

AT1 L112A receptor = target: T4, AT1 L112A receptor (Rattus norvegicus, UniProt P25095, L112A); assay: Competition binding study, 125I-[Sar1,Ile8]Ang II, AT1 L112A receptor
T4 construct: expressed in transfected cells; host or cells: COS7
T4 sequence (P25095 1-359 L112A): T1 sequence (P25095 1-359 Y292A) with L112A, A292Y
Source text: as §1
(§4) The synthetic rat AT1 receptor gene, which was cloned in the shuttle expression vector pMT-2, was used for expression and mutagenesis, as described previously. COS7 cells (No. CRL-1651, ATCC, Manassas, VA, USA) were cultured in 10% fetal bovine serum (FBS) and penicillin- and streptomycin-supplemented Dulbecco’s modified Eagle’s essential medium (PS-DMEM) in 5% CO2 at 37 °C. In the experiments, cells were grown without a cell-growth supplement. To express the AT1 receptor protein, 10 µg of purified plasmid DNA per 10^7 cells was used in the transfection. […] We then analyzed the parameters in transfected cells. […]
(§5) The Kd (nM) values of receptor binding were determined with ^125I-[Sar^1, Ile^8]AngII-binding experiments under equilibrium conditions. Binding kinetics were determined following the methods described in the literature. […] Ang II was determined in the presence of a high concentration (10^−6 M) of unlabeled [Sar^1, Ile^8]. […] The radioactivity trapped on the filters was quantified using an automatic γ-counter. The percentage (%) of specific binding of ^125I-[Sar^1, Ile^8]Ang II was calculated using the following formula: 100 × (% total binding of ^125I-[Sar^1, Ile^8]Ang II—nonspecific binding of ^125I-[Sar^1, Ile^8]Ang II)/(% total binding of ^125I-[Sar^1, Ile^8]Ang II).

AT1 wild-type receptor = target: T5, AT1 wild-type receptor (Rattus norvegicus, UniProt P25095); assay: Competition binding study, 125I-[Sar1,Ile8]Ang II, AT1 wild-type receptor
T5 construct: expressed in transfected cells; host or cells: COS7
T5 sequence (P25095 1-359): T1 sequence (P25095 1-359 Y292A) with A292Y
Procedure: as §4, §5

Kd (AT1 Y292A receptor): 2.1 ± 0.9 nM | Kd (AT1 N295A receptor): 7 ± 2 nM | Kd (AT1 Q257A receptor): 3.3 ± 1.5 nM | Kd (AT1 L112A receptor): 1.3 ± 0.3 nM | Kd (AT1 wild-type receptor): 0.8 ± 0.4 nM
SMILES: CC[C@H](C)[C@H](NC(=O)[C@@H]1CCCN1C(=O)[C@H](Cc1c[nH]cn1)NC(=O)[C@@H](NC(=O)[C@H](Cc1ccc(O)cc1)NC(=O)[C@@H](NC(=O)[C@H](CCCN=C(N)N)NC(=O)CNC)C(C)C)[C@@H](C)CC)C(=O)O [[Sar^1,Ile^8]Ang II, [Sar^1, Ile^8]Ang II, reference compound]
